These results are taken from patent US11091482B2, “Isoxazolyl-carbonyloxy azabicyclo[3.2.1]octanyl compounds as FXR activators” (ARDELYX, INC., priority 2016, dated 2021).

Assay [1] concerns the target human Farnesoid X receptor ligand-binding domain/Gal4 DNA binding domain chimera (Homo sapiens (Human), UniProt Q96RI1). Put plainly: Cell-based FXR beta-lactamase reporter assay (FXR-UAS-bla HEK 293T cells). The following applies: for FXR pEC50 / % Efficacy / EC50: cellular FXR beta-lactamase reporter assay; for FXR pEC50 / EC50: -log EC50; for % Efficacy: extent of activation relative to GW4064; for Emax: HEK-293T, read-out: % Efficacy; for EC50: read-out: FXR pEC50 (converted). As for the experimental part: FXR activation was measured using a cell line and procedure obtained from Life Technologies (Cat #K1691). FXR-UAS-bla HEK 293T cells contain a human Farnesoid X receptor ligand-binding domain/Gal4 DNA binding domain chimera stably integrated into the CellSensor® UAS-bla HEK 293T cell line. The CellSensor® UAS-bla HEK 293T contains a beta-lactamase reporter gene under control of a UAS response element stably integrated into HEK 293T cells. Activation of FXR by bound ligands results in transcriptional activation of the beta-lactamase reporter gene, which is detected via assay of beta-lactamase activity. Cells are harvested and diluted into assay medium containing phenol red-free DMEM supplemented with 2% Charcoal-stripped FBS, pyruvate, non-essential amino acids. Cells are then transferred to a 384 well assay plate. Test compounds are dissolved in DMSO and a 3-fold serial dilution series is generated, then further diluted into assay medium. […] A FRET-based […] is loaded into cells as its acetomethoxy ester. Intracellular esterases liberate free CCF4, a cephalosporin core linking 7-hydroxycoumarin to fluorescein. In the presence of beta-lactamase activity produced in the presence of FXR agonists, cleavage of CCF4 spatially separates the two dyes and disrupts FRET, so that exciting the coumarin at 409 nm now produces a blue fluorescence signal at 447 nm. The change in FRET signal is plotted against the test compound concentration and fit to a 3-parameter logistical equation.
For orientation: Reporter assays use an easily measured gene product as a stand-in for the process of interest.

The target in assay [2] is ligand binding domain of human FXR (Homo sapiens (Human), UniProt Q96RI1). Kind of assay: FXR ligand binding assay (LanthaScreen FRET).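 On all read-outs here: TR-FRET coactivator recruitment: ligand-induced binding of fluorescein-labelled SRC2-2 peptide to GST-tagged FXR LBD detected via Tb anti-GST antibody, serial compound dilutions, 3-parameter logistic fit.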 The following applies: for FXR pEC50 / % Efficacy: FXR ligand binding assay; for FXR pEC50: -log EC50; for % Efficacy: extent of activation relative to GW4064; for Emax: read-out: % Efficacy. A general note: Time-resolved FRET reads energy transfer from a long-lived donor to a nearby acceptor.
ligand binding domain of human FXR, sequence (Q96RI1 262-486): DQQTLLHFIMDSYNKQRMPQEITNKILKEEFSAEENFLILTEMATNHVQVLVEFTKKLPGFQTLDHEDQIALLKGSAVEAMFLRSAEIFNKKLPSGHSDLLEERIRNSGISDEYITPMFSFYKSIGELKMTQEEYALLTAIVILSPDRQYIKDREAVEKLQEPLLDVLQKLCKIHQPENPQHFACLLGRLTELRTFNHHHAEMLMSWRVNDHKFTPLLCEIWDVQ
Experimental: The affinity of FXR ligands for the ligand binding domain of FXR was determined using a commercially available human FXR ligand binding assay (LanthaScreen, Thermofisher Cat #PV4833). […] Binding of FXR ligands to the FXR ligand binding domain promotes binding of the fluorescein-labelled SRC2-2 peptide. This causes a FRET signal between the terbium-labelled anti-GST antibody and the fluorescein-labelled SRC peptide which are both bound to the FXR ligand binding domain.
Test compounds are dissolved in DMSO and a 3-fold serial dilution series is generated, then further diluted into assay buffer. The compounds are mixed with 5 nM GST-tagged FXR ligand binding domain, 5 nM Tb-labelled anti-GST antibody and 500 nM fluorcscein-labelled SRC2-2 peptide in a pH 7.4 buffer. The reaction is incubated at room temperature for 1 hour, then the FRET signal is measured as the ratio of the 520 nm/495 nm emission following excitation at 340 nm. The change in FRET signal is plotted against the test article concentration and fit to a 3-parameter logistical equation.

human Farnesoid X receptor ligand-binding domain/Gal4 DNA binding domain chimera, sequence (Q96RI1 262-486, stated change not applied): as the sequence (Q96RI1 262-486) above

Take `CC(C)S(=O)(=O)NC(=O)c1ccc(N2[C@@H]3CC[C@H]2C[C@@H](OC(=O)c2c(-c4c(Cl)cccc4Cl)noc2C2CC2)C3)cc1` [Compound I-47, (1R,3R,5S)-8-{4-[(propane-2-sulfonyl)carbamoyl]phenyl}-8-azabicyclo[3.2.1]octan-3-yl 5-cyclopropyl-3-(2,6-dichlorophenyl)-1,2-oxazole-4-carboxylate]: in assay [1], the “FXR pEC50” value is 8.5 and the “% Efficacy” value turned out to be 124%. In assay [2], the “FXR pEC50” value is given as 7.8 and the “% Efficacy” value is reported as 168%.
As for `COc1cc(C(=O)O)cc2sc(N3[C@@H]4CC[C@H]3C[C@@H](OC(=O)c3c(-c5c(Cl)cccc5Cl)noc3C3CC3)C4)nc12` [Compound I-8, 2-[(1R,3R,5S)-3-[5-Cyclopropyl-3-(2,6-dichlorophenyl)-1,2-oxazole-4-carbonyloxy]-8-azabicyclo[3.2.1]octan-8-yl]-4-methoxy-1,3-benzothiazole-6-carboxylic Acid], in assay [1], the Emax came out at 114% and the EC50 was 3.98 nM. Also, the Emax in assay [2] is 105%.
As for `CC(C)(C)c1onc(-c2c(Cl)cccc2Cl)c1C(=O)OC1C[C@H]2CC[C@@H](C1)N2c1nc2c(F)cc(C(=O)O)cc2s1` (single isomer, unassigned) [Compound I-25], the “FXR pEC50” value in assay [1] amounted to 7.6; in assay [2], 7.2.
Turning to `CS(=O)(=O)NC(=O)c1ccc(N2[C@@H]3CC[C@H]2C[C@@H](OC(=O)c2c(-c4c(Cl)cccc4Cl)noc2C2CC2)C3)c(Cl)c1` [Compound I-52, (1R,3R,5S)-8-[2-chloro-4-(methanesulfonylcarbamoyl)phenyl]-8-azabicyclo[3.2.1]octan-3-yl 5-cyclopropyl-3-(2,6-dichlorophenyl)-1,2-oxazole-4-carboxylate], the Emax in assay [1] amounted to 109%; in assay [2], 110%. For the same compound, in assay [1], the EC50 was 15.8 nM.
Take `O=C(O)c1ccc(N2[C@@H]3CC[C@H]2C[C@@H](OC(=O)c2c(-c4c(Cl)cccc4Cl)noc2C2CC2)C3)c(C(F)(F)F)c1` [Compound I-38, 4-[(1R,3R,5S)-3-[5-cyclopropyl-3-(2,6-dichlorophenyl)-1,2-oxazole-4-carbonyloxy]-8-azabicyclo[3.2.1]octan-8-yl]-3-(trifluoromethyl)benzoic acid]: in assay [1], the Emax was 112% and the EC50 is 79.4 nM. Besides, in assay [2], the “FXR pEC50” value is listed as 6.6 and the Emax worked out at 80%.
For `CN1c2cc(N3[C@@H]4CC[C@H]3C[C@@H](OC(=O)c3c(-c5c(Cl)cccc5Cl)noc3C3CC3)C4)ccc2C(=O)C1(F)F` [Compound I-30, (1R,3R,5S)-8-(2,2-difluoro-1-methyl-3-oxo-2,3-dihydro-1H-indol-6-yl)-8-azabicyclo[3.2.1]octan-3-yl 5-cyclopropyl-3-(2,6-dichlorophenyl)-1,2-oxazole-4-carboxylate], in assay [1], the Emax worked out at 82% and the EC50 is 100 nM. Besides, the Emax in assay [2] is 40%.
With `O=C(O)c1ccc(N2[C@@H]3CC[C@H]2C[C@@H](OC(=O)c2c(-c4c(Cl)cccc4Cl)noc2C2CC2)C3)c(F)c1` [Compound I-35, 4-[(1R,3R,5S)-3-[5-Cyclopropyl-3-(2,6-dichlorophenyl)-1,2-oxazole-4-carbonyloxy]-8-azabicyclo[3.2.1]octan-8-yl]-3-fluorobenzoic Acid], in assay [1], the Emax turned out to be 116% and the EC50 is 31.6 nM. Besides, the Emax in assay [2] came out at 92%.
The corresponding values for `Cc1cc(C(=O)O)cc2sc(N3[C@@H]4CC[C@H]3C[C@@H](OC(=O)c3c(-c5c(Cl)cccc5Cl)noc3C3(F)CC3)C4)nc12` [Compound I-59, 2-[(1R,3R,5S)-3-[3-(2,6-dichlorophenyl)-5-(1-fluorocyclopropyl)-1,2-oxazole-4-carbonyloxy]-8-azabicyclo[3.2.1]octan-8-yl]-4-methyl-1,3-benzothiazole-6-carboxylic Acid] are 105%, 39.8 nM and 95%.
The corresponding values for `CS(=O)(=O)NC(=O)c1ccc(N2[C@@H]3CC[C@H]2C[C@@H](OC(=O)c2c(-c4c(Cl)cccc4Cl)noc2C2CC2)C3)c(F)c1` [Compound I-51, (1R,3R,5S)-8-[2-fluoro-4-(methanesulfonylcarbamoyl)phenyl]-8-azabicyclo[3.2.1]octan-3-yl 5-cyclopropyl-3-(2,6-dichlorophenyl)-1,2-oxazole-4-carboxylate] are 105%, 5.01 nM and 139%.
The corresponding values for `N#Cc1ccc(N2[C@@H]3CC[C@H]2C[C@@H](OC(=O)c2c(-c4c(Cl)cccc4Cl)noc2C2CC2)C3)cc1O` [Compound I-53, (1R,3R,5S)-8-(4-cyano-3-hydroxyphenyl)-8-azabicyclo[3.2.1]octan-3-yl 5-cyclopropyl-3-(2,6-dichlorophenyl)-1,2-oxazole-4-carboxylate] are 81%, 251 nM and 58%.
On to `O=C(O)c1ccc(N2[C@@H]3CC[C@H]2C[C@@H](OC(=O)c2c(-c4c(Cl)cccc4Cl)noc2C2CC2)C3)cc1F` [Compound I-41, 4-[(1R,3R,5S)-3-[5-cyclopropyl-3-(2,6-dichlorophenyl)-1,2-oxazole-4-carbonyloxy]-8-azabicyclo[3.2.1]octan-8-yl]-2-fluorobenzoic acid], for which, in assay [1], the Emax was determined as 117% and the EC50 is 20 nM. In assay [2], the “FXR pEC50” value is 7.7 and the Emax amounted to 92%.
The corresponding values for `Cc1cc(C(=O)O)cc2sc(N3[C@@H]4CC[C@H]3C[C@@H](OC(=O)c3c(-c5ccccc5C(F)(F)F)noc3C3CC3)C4)nc12` [Compound I-61, 2-[(1R,3R,5S)-3-{5-cyclopropyl-3-[2-(trifluoromethyl)phenyl]-1,2-oxazole-4-carbonyloxy}-8-azabicyclo[3.2.1]octan-8-yl]-4-methyl-1,3-benzothiazole-6-carboxylic Acid] are 102%, 10 nM, 7.1 and 139%.
On to `O=C(O)c1cc(C2CC2)c2nc(N3[C@@H]4CC[C@H]3C[C@@H](OC(=O)c3c(-c5c(Cl)cccc5Cl)noc3C3CC3)C4)sc2c1` [Compound I-12, 2-[(1R,3R,5S)-3-[5-cyclopropyl-3-(2,6-dichlorophenyl)-1,2-oxazole-4-carbonyloxy]-8-azabicyclo[3.2.1]octan-8-yl]-4-(cyclopropyl)-1,3-benzothiazole-6-carboxylic Acid], for which, in assay [1], the Emax is 112% and the EC50 is 7.94 nM. Also, the Emax in assay [2] was found to be 125%.
The corresponding values for `O=C(O)c1cc(OC(F)(F)F)c2nc(N3[C@@H]4CC[C@H]3C[C@@H](OC(=O)c3c(C56CCC(CC5)CC6)noc3C3CC3)C4)sc2c1` [Compound I-57, 2-[(1R,3R,5S)-3-(3-{bicyclo[2.2.2]octan-1-yl}-5-cyclopropyl-1,2-oxazole-4-carbonyloxy)-8-azabicyclo[3.2.1]octan-8-yl]-4-(trifluoromethoxy)-1,3-benzothiazole-6-carboxylic Acid] are 33%, 398 nM and 26%.
With `COC12CCC(c3noc(C4CC4)c3C(=O)O[C@@H]3C[C@H]4CC[C@@H](C3)N4c3nc4c(OC(F)(F)F)cc(C(=O)O)cc4s3)(CC1)CC2` [Compound I-58, 2-[(1R,3S,5S)-3-(5-cyclopropyl-3-{4-methoxybicyclo[2.2.2]octan-1-yl}-1,2-oxazole-4-carbonyloxy)-8-azabicyclo[3.2.1]octan-8-yl]-4-(trifluoromethoxy)-1,3-benzothiazole-6-carboxylic Acid], in assay [1], the “FXR pEC50” value is greater than 4.5. Also, in assay [2], the “FXR pEC50” value is reported as greater than 4.4 and the “% Efficacy” value is 22%.
As for `COc1cc(N2[C@@H]3CC[C@H]2C[C@@H](OC(=O)c2c(-c4c(Cl)cccc4Cl)noc2C2CC2)C3)ccc1C(=O)O` [Compound I-39, 4-[(1R,3R,5S)-3-[5-cyclopropyl-3-(2,6-dichlorophenyl)-1,2-oxazole-4-carbonyloxy]-8-azabicyclo[3.2.1]octan-8-yl]-2-methoxybenzoic acid], in assay [1], the Emax is 114% and the EC50 is 100 nM. For the same compound, in assay [2], the “FXR pEC50” value is 6.8 and the Emax worked out at 64%.
As to `O=C(O)c1cc(F)c2nc(N3[C@@H]4CC[C@H]3C[C@@H](OC(=O)c3c(-c5c(Cl)cccc5Cl)noc3C3CCC3)C4)sc2c1` [Compound I-24, 2-[(1R,3R,5S)-3-[5-cyclobutyl-3-(2,6-dichlorophenyl)-1,2-oxazole-4-carbonyloxy]-8-azabicyclo[3.2.1]octan-8-yl]-4-fluoro-1,3-benzothiazole-6-carboxylic Acid], in assay [1], the “FXR pEC50” value came to 7.5 and the “% Efficacy” value was 98%. Besides, in assay [2], the “FXR pEC50” value was 7.9 and the “% Efficacy” value was 64%.
